Data as given in patent US20210113498A1, “TOPICAL AND TRANSDERMAL DELIVERY OF AN IRON CHELATOR TO PREVENT AND TREAT CHRONIC WOUNDS” (TAUTONA GROUP IP HOLDING COMPANY, L.L.C., priority 2018, published 2021).

Assays:
HbSS BERK mice = test: Excisional wound healing in sickle cell mice; assay type: in vivo, mouse; details: 6 mm full-thickness excisional wounds, daily treatment, mean±s.e.m., in days
Source text: The proposed mechanism for healing was investigated using a sickle cell mouse study (Rodrigues et al. publication pending). In this study, transgenic sickle cell mouse model, HbSS-BERK, were used to determine the effectiveness of DIDP. […] They recapitulate human sickle cell disease including hemolysis, reticulocytosis, anemia, extensive organ damage, shortened life span and pain.
Mice. […] These mice simulate human sickle cell disease including hemolysis, reticulocytosis, anemia, extensive organ damage, shortened life span and pain26-28. HbSS-BERK mice were bred and phenotyped for human sickle hemoglobin. Genotyping for the knockout and hemoglobin transgenes was performed. Control mice (wild type) on a C57/Bl6 background [#000664] were also obtained.
DFO delivery device. A transdermal delivery system was used to deliver DFO into the dermal tissue of the mice. […]
Excisional wound healing. Five-month old male HbSS BERK and wild type mice were subjected to a quantitative and reproducible model of excisional wounding using an established protocol described in Galioano et al., Wound Repair Regen 12, 485-492, doi:10.1111/j.1067-1927.2004.12404.x (2004). […]
Wound treatment. […] Wound area was measured using Image J software (NIH). […]

[1] = assay type: in vitro ADME, human
Source text: To study the capacity of an intradermal patch comprising an iron chelator, such as DFO, to deliver DFO into human dermis, a vertical Franz Diffusion Cell (FIG. 8) was used to evaluate the DIDP. Full thickness human skin samples obtained under Stanford University IRB approval were mounted between the two compartments of the diffusion cell with the stratum corneum facing the donor compartment. The DIDP was applied and isotonic phosphate buffer solution agitated with a magnetic stirrer and maintained at 37° C. by a circulating water jacket. Every hour, over the course of 15 hours, skin samples were removed, washed with phosphate buffer saline (PBS) and dried with an absorbent towel. The skin samples were frozen at −20° C. and cut with a microtome into 20 μm sections. The samples were analyzed for drug content spectrophotometrically at 560 nm (Shimadzu, Japan) and the relative DFO concentration was determined. Skin biopsies of the fresh full thickness skin samples used in the Franz cell experiment after DIDP application were processed for histology. Intracellular DFO-iron aggregates were made visible using ferrocyanide staining via a modified Prussian blue reaction as described previously. Skin samples were incubated overnight in 7% potassium ferrocyanide dissolved in 3% hydrochloric acid. […]

[2] = systemic delivery (subcutaneous, intravenous, intramuscular) within approved dose limits; cited from earlier work

- Human skin permeation (stratum corneum / dermal accumulation) [1]: no permeation of the stratum corneum
SMILES: CC(=O)N(O)CCCCCNC(=O)CCC(=O)N(O)CCCCCNC(=O)CCC(=O)N(O)CCCCCN [DFO, deferoxamine]
- Time to complete wound closure (HbSS BERK mice): 14.5 ± 0.6268
- Toxicity in adult or pediatric patients [2]: no evidence of toxicity
